Laboratory results: US20260053811A1, “METHODS OF TREATING HYPERTENSION IN OBESE SUBJECTS” (Mineralys Therapeutics, Inc., priority 2022, published 2026)
Marks after values point to notes of the source that are not given here.

Assays:
hypertensive subjects [1] = assay: Serum potassium; type: in vivo, human; conditions: for Increase in potassium levels relative to baseline: Week 8; for Individuals with increased serum K+, Mild 5.6-6.0 mMol/L (number) / Individuals with increased serum K+, Mild 5.6-6.0 mMol/L (percent) / Individuals with increased serum K+, Moderate 6.1-6.5 mMol/L / Individuals with increased serum K+, Severe >6.5 mMol/L: during treatment
Description: Safety endpoints of this study are: • (a) Incidence and severity of all spontaneously reported adverse events (AEs) • (b) Changes in vital signs (standing SBP, standing DBP, body temperature, heart rate, and respiratory rate) • (c) Changes in electrocardiogram parameters (including cardiac intervals: PR, QRS, QT, and corrected QT interval using Fridericia's formula) • (d) Changes in clinical laboratory assessments (hematology, chemistry, coagulation, and urinalysis) • (e) Change in office-measured SBP from Study Week 8 (end-of-treatment period to end of follow up (i.e. end of Study Week 12 for Part 1 and end of Study 10 for Part 2).
The Safety Analysis Set includes all enrolled subjects who received at least one dose of study treatment (MLS-101 or placebo). In analyses performed on the Safety Analysis Set, subjects will be analyzed according to their actual treatment received.

hypertensive subjects [2] = assay: ACTH stimulation testing / adrenocortical insufficiency; type: in vivo, human
Experimental: 11-deoxycorticosterone levels were unaffected. […] Due to supply chain disruption, the ability to perform ACTH stimulation testing was limited during the first part of the trial. However, the majority of subjects in Part 2 dosed with 100 mg QD, the maximum dose tested, had ACTH-stimulation testing performed at Baseline and after 8 weeks of treatment.

CC(=O)N[C@H]1CC[C@H](NC(=O)CN2CCN(c3nncc(-c4ccc(C)cc4)n3)CC2)CC1 [Compound A HBr]
Increase in potassium levels relative to baseline (hypertensive subjects [1]; 25 mg BID, Part 1): 0.341 mmol/L | Serum K+ Mean Change from Baseline to Wk 8 (hypertensive subjects [1]; 50 mg QD (n = 28)): +0.25 mmol/L | Individuals with increased serum K+, Mild 5.6-6.0 mMol/L (number) (hypertensive subjects [1]; 50 mg QD (n = 28)): 1 | Individuals with increased serum K+, Mild 5.6-6.0 mMol/L (percent) (hypertensive subjects [1]; 50 mg QD (n = 28)): (10.7%) | Individuals with increased serum K+, Moderate 6.1-6.5 mMol/L (hypertensive subjects [1]; 50 mg QD (n = 28)): 0 | Serum K+ Mean Change from Baseline to Wk 8 (hypertensive subjects [1]; 100 mg QD (n = 61)): +0.29 mmol/L | Individuals with increased serum K+, Mild 5.6-6.0 mMol/L (number) (hypertensive subjects [1]; 100 mg QD (n = 61)): 8 | Individuals with increased serum K+, Mild 5.6-6.0 mMol/L (percent) (hypertensive subjects [1]; 100 mg QD (n = 61)): (13.1%) | Individuals with increased serum K+, Moderate 6.1-6.5 mMol/L (hypertensive subjects [1]; 100 mg QD (n = 61)): 1 (1.6%) | Individuals with increased serum K+, Severe >6.5 mMol/L (hypertensive subjects [1]; 100 mg QD (n = 61)): 1 (1.6%) | Number of individuals with verified or multiple increased serum K+ 5.2-5.5 mMol/L (hypertensive subjects [1]; 100 mg QD, Part 1): 5 | Number of individuals with verified or multiple increased serum K+ 5.6-6.0 mMol/L (hypertensive subjects [1]; 100 mg QD, Part 1): 3 | Number of individuals with verified or multiple increased serum K+ 6.1-6.5 mMol/L (hypertensive subjects [1]; 100 mg QD, Part 1): 0 | Percent of individuals with verified or multiple increased serum K+ 5.2-5.5 mMol/L (hypertensive subjects [1]; 100 mg QD, Part 1): (18.5%) | Percent of individuals with verified or multiple increased serum K+ 5.6-6.0 mMol/L (hypertensive subjects [1]; 100 mg QD, Part 1): (10.7%) | Number of individuals with increased serum K+ >6.5 mMol/L (hypertensive subjects [1]; 100 mg QD, Part 1, isolated incident not verified by repeat measurement): 1* | Number of individuals with verified or multiple increased serum K+ 5.2-5.5 mMol/L (hypertensive subjects [1]; 100 mg QD, Part 2): 1 | Number of individuals with verified or multiple increased serum K+ 5.6-6.0 mMol/L (hypertensive subjects [1]; 100 mg QD, Part 2): 0 | Number of individuals with verified or multiple increased serum K+ 6.1-6.5 mMol/L (hypertensive subjects [1]; 100 mg QD, Part 2): 0 | Number of individuals with verified or multiple increased serum K+ >6.5 mMol/L (hypertensive subjects [1]; 100 mg QD, Part 2): 0 | Percent of individuals with verified or multiple increased serum K+ 5.2-5.5 mMol/L (hypertensive subjects [1]; 100 mg QD, Part 2): (4%) | Increase in potassium levels relative to baseline (hypertensive subjects [1]; 100 mg QD, Part 2): 0.208 mmol/L | Number of individuals with verified or multiple increased serum K+ 5.2-5.5 mMol/L (hypertensive subjects [1]; 100 mg QD, Pooled): 6 | Number of individuals with verified or multiple increased serum K+ 5.6-6.0 mMol/L (hypertensive subjects [1]; 100 mg QD, Pooled): 3 | Number of individuals with verified or multiple increased serum K+ 6.1-6.5 mMol/L (hypertensive subjects [1]; 100 mg QD, Pooled): 0 | Number of individuals with verified or multiple increased serum K+ >6.5 mMol/L (hypertensive subjects [1]; 100 mg QD, Pooled): 0 | Percent of individuals with verified or multiple increased serum K+ 5.2-5.5 mMol/L (hypertensive subjects [1]; 100 mg QD, Pooled): (10.3%) | Percent of individuals with verified or multiple increased serum K+ 5.6-6.0 mMol/L (hypertensive subjects [1]; 100 mg QD, Pooled): (5.2%) | Individuals with increased serum K+, Mild 5.6-6.0 mMol/L (number) (hypertensive subjects [1]; All Active (n = 163)): 16 | Individuals with increased serum K+, Mild 5.6-6.0 mMol/L (percent) (hypertensive subjects [1]; All Active (n = 163)): (9.8%) | Individuals with increased serum K+, Moderate 6.1-6.5 mMol/L (hypertensive subjects [1]; All Active (n = 163)): 4 (2.5%) | Individuals with increased serum K+, Severe >6.5 mMol/L (hypertensive subjects [1]; All Active (n = 163)): 2* | Change in group mean serum potassium (K+), Mean (hypertensive subjects [1]; Part 1 (N 26)): +0.50 mMol/L | Change in group mean serum potassium (K+), Mean (hypertensive subjects [1]; Part 1, N 26*): +0.50 mMol/L | Change in group mean serum potassium (K+), Mean (hypertensive subjects [1]; Part 2 (N 31)): +0.23 mMol/L | Change in group mean serum potassium (K+), Mean (hypertensive subjects [1]; Part 2, N 31): +0.23 mMol/L | Subjects with transient elevated serum potassium greater than 6.0 mmol/L (hypertensive subjects [1]; Parts 1 and 2, listed as lorundrostat): seven | Change in group mean serum potassium (K+), Mean (hypertensive subjects [1]; Pooled (N 57)): +0.35 mMol/L | Change in group mean serum potassium (K+), Mean (hypertensive subjects [1]; Pooled, N 57): +0.35 mMol/L | Serum potassium levels compared with placebo (hypertensive subjects [1]; active treatment cohorts, Parts 1 and 2): increased | Adrenocortical insufficiency (hypertensive subjects [2]; during the trial, listed as lorundrostat): no adrenocortical insufficiency occurred | ACTH-stimulation results (hypertensive subjects [2]; majority of Part 2 subjects, 100 mg QD, Baseline and after 8 weeks): no individuals with abnormal ACTH-stimulation results
